In brackets after ≈: the same amount, converted by molar mass.
Experiment: Compound solubility in water
Type: physicochemical

| Structure (SMILES) | solubility [µg/mL] |
| --- | --- |
| Cc1ccncc1-c1cc(C)n2ncc(C(=O)NC(C3CC3)C(F)(F)F)c2n1 (centres unmarked) [III-274] | 2.3 (≈ 5.91 µM) |
| Cc1cc(-c2cccc3ncoc23)nc2c(C(=O)NC(C)(C)C3CC3)cnn12 [III-223] | 0.2 (≈ 0.533 µM) |
| Cc1cc(-n2ccc(F)n2)nc2c(C(=O)NC(C3CC3)C(F)(F)F)cnn12 (centres unmarked) [III-172] | 0.5 (≈ 1.31 µM) |
| CCCCO[C@H]1CC[C@H](NC(=O)c2cnn3c(C)cc(-c4cncc(Cl)c4)nc23)CC1 [III-293] | 0.3 (≈ 0.679 µM) |
| Cc1cncc(-c2cc(C)n3ncc(C(=O)NC(C)C(F)(F)F)c3n2)c1 (centres unmarked) [III-282] | 6.2 (≈ 17.1 µM) |
| Cc1cc(-c2cccnc2)nc2c(C(=O)NC(C(C)C)C(F)(F)F)cnn12 (centres unmarked) [III-41] | 1.9 (≈ 5.03 µM) |
| Cc1cc(N2CCC(C)(C)C2=O)nc2c(C(=O)NC(C3CC3)C(F)(F)F)cnn12 (centres unmarked) [III-328] | 3.3 (≈ 8.06 µM) |
| Cc1ncc(-c2cc(C)n3ncc(C(=O)NC(C)(C)C4CC4)c3n2)o1 [III-252] | 11 (≈ 32.4 µM) |
| Cc1cc(-c2ccc3ocnc3c2)nc2c(C(=O)NC(C3CC3)C(F)(F)F)cnn12 (centres unmarked) [III-83] | 0.3 (≈ 0.722 µM) |
| Cc1cc(-c2cc(C)n3ncc(C(=O)NC(C4CC4)C(F)(F)F)c3n2)sn1 (centres unmarked) [III-214] | 2.3 (≈ 5.82 µM) |
| Cc1cc(-c2ccns2)nc2c(C(=O)NC(C)C(F)(F)F)cnn12 (centres unmarked) [III-178] | 0.7 (≈ 1.97 µM) |
| Cc1cc(-n2ccc(Cl)n2)nc2c(C(=O)NC(C3CC3)C(F)(F)F)cnn12 (centres unmarked) [III-107] | 0.1 (≈ 0.251 µM) |
| Cc1cc(NC2CC2)nc2c(C(=O)NC(C)C(F)(F)F)cnn12 (centres unmarked) [III-165] | 4 (≈ 12.2 µM) |
| Cc1cc(-c2cccc(C#N)n2)nc2c(C(=O)NC(C3CC3)C(F)(F)F)cnn12 (centres unmarked) [III-133] | 0.2 (≈ 0.5 µM) |
| Cc1cc(-c2ccccn2)n2ncc(C(=O)NC(C)(C)C3CC3)c2n1 [III-17] | 2.2 (≈ 6.56 µM) |
| Cc1cc(C)n2nc(Cl)c(C(=O)N[C@@H](C)C3CC3)c2n1 [III-34] | 10.3 (≈ 35.2 µM) |
| Cc1cc(-c2cc(F)cc(C#N)c2)nc2c(C(=O)N[C@@H](C)C3CC3)cnn12 [III-128] | 3 (≈ 8.26 µM) |
| Cc1ccc(-c2cc(C)n3ncc(C(=O)NC(C)C(F)(F)F)c3n2)cn1 (centres unmarked) [III-283] | 12.7 (≈ 35 µM) |
| COc1cncc(-c2cc(C)n3ncc(C(=O)NC(C4CC4)C(F)(F)F)c3n2)c1 (centres unmarked) [III-265] | 1.3 (≈ 3.21 µM) |
| Cc1cc(N2CCC(F)(F)C2)nc2c(C(=O)NC(C)C(F)(F)F)cnn12 (centres unmarked) [III-180] | 4.8 (≈ 12.7 µM) |
| Cc1ccc(-c2cc(C)n3ncc(C(=O)NC(C4CC4)C(F)(F)F)c3n2)cn1 (centres unmarked) [III-278] | 0.5 (≈ 1.28 µM) |
| COc1c(F)cccc1-c1cc(C)n2ncc(C(=O)NC(C3CC3)C(F)(F)F)c2n1 (centres unmarked) [III-139] | 0.1 (≈ 0.237 µM) |
| Cc1cc(-c2ccc3c(c2)OCO3)nc2c(C(=O)N[C@@H](C)C3CC3)cnn12 [III-210] | 2.4 (≈ 6.59 µM) |
| Cc1cc(-c2ccns2)nc2c(C(=O)N[C@@H](C)C3CC3)cnn12 [III-197] | 6.5 (≈ 19.9 µM) |
| Cc1cc(-c2ccc(N3CCOCC3)c(F)c2)nc2c(C(=O)NC(C)C(F)(F)F)cnn12 (centres unmarked) [III-299] | 0.5 (≈ 1.11 µM) |
| Cc1cc(N2CCN(C(C)C)C2=O)nc2c(C(=O)NC(C)(C)C)cnn12 [III-232] | 23.7 (≈ 66.1 µM) |

| Structure (SMILES) | solubility [µg/mL] |
| --- | --- |
| CCOc1cccc(-c2cc(C)n3ncc(C(=O)NC(C)C(F)(F)F)c3n2)c1 (centres unmarked) [III-76] | 0.2 (≈ 0.51 µM) |
| Cc1nc(-c2cc(C)n3ncc(C(=O)N[C@H](C4CC4)C(F)(F)F)c3n2)oc1C [III-331] | 1 (≈ 2.54 µM) |
| Cc1cc(N2CC(C(C)C)OC2=O)nc2c(C(=O)NC(c3ccccc3)C(F)(F)F)cnn12 (centres unmarked) [III-313] | 0.1 (≈ 0.217 µM) |
| Cc1cc(-c2cncc(F)c2)nc2c(C(=O)N[C@@H](C3CC3)C(F)(F)F)cnn12 [III-127] | 2.5 (≈ 6.36 µM) |
| Cc1cc(-c2ccncc2)n2ncc(C(=O)NC(C)(C)C3CC3)c2n1 [III-21] | 10 (≈ 29.8 µM) |
| Cc1ccc(-c2cc(C)n3ncc(C(=O)N[C@H](C4CC4)C(F)(F)F)c3n2)c(F)n1 [III-372] | 1.7 (≈ 4.17 µM) |
| Cc1cc(-c2cncc(Cl)c2)nc2c(C(=O)N[C@H](C)C(F)(F)F)cnn12 [III-201] | 3.1 (≈ 8.08 µM) |
| Cc1cc(-c2cncc(Cl)c2)nc2c(C(=O)NC(C)(C)C3CC3)cnn12 [III-292] | 0.3 (≈ 0.811 µM) |
| Cc1cc(N2CCCC(F)(F)C2)nc2c(C(=O)N[C@@H](C3CC3)C(F)(F)F)cnn12 [III-95] | 1 (≈ 2.4 µM) |
| Cc1cc(-c2ccon2)nc2c(C(=O)NC(C3CC3)C(F)(F)F)cnn12 (centres unmarked) [III-239] | 0.8 (≈ 2.19 µM) |
| Cc1cc(C)n2ncc(C(=O)N[C@@H](C)C3CCCCC3)c2n1 [III-4] | 16.1 (≈ 53.6 µM) |
| Cc1cc(C)n2ncc(C(=O)N[C@H](C3CC3)C(F)(F)F)c2n1 [III-10] | 15.3 (≈ 49 µM) |
| Cc1cc(-c2cccc3c2ncn3C)nc2c(C(=O)NC(C3CC3)C(F)(F)F)cnn12 (centres unmarked) [III-310] | 0.3 (≈ 0.7 µM) |
| Cc1cc(-c2cscc2C#N)nc2c(C(=O)NC(C3CC3)C(F)(F)F)cnn12 (centres unmarked) [III-188] | 0.3 (≈ 0.74 µM) |
| Cc1cc(N2CCCN(C(C)C)C2=O)nc2c(C(=O)NC(C3CC3)C(F)(F)F)cnn12 (centres unmarked) [III-257] | 11.6 (≈ 26.5 µM) |
| Cc1cc(-c2ccc(F)c(C(N)=O)c2)nc2c(C(=O)N[C@@H](C)C3CC3)cnn12 [III-160] | 1.1 (≈ 2.88 µM) |
| Cc1cc(N2CCN(C(C)C)C2=O)nc2c(C(=O)N[C@H](C3CC3)C(F)(F)F)cnn12 [III-327] | 32.8 (≈ 77.3 µM) |
| Cc1cc(-c2cccc(-n3cccn3)c2)nc2c(C(=O)NC(C3CC3)C(F)(F)F)cnn12 (centres unmarked) [III-415] | 1.2 (≈ 2.72 µM) |
| Cc1cc(-c2cc(F)ccc2C#N)nc2c(C(=O)N[C@H](C)C(F)(F)F)cnn12 [III-349] | 0.1 (≈ 0.256 µM) |
| Cc1cc(-c2cccc(F)c2)nc2c(C(=O)NC(C)(C)C(F)(F)F)cnn12 [III-80] | 0.2 (≈ 0.526 µM) |
| Cc1cc(-c2cccc(OC3CC3)c2)nc2c(C(=O)NC(C)C(F)(F)F)cnn12 (centres unmarked) [III-77] | 0.3 (≈ 0.742 µM) |
| Cc1cc(-c2cncc(Cl)c2)nc2c(C(=O)N[C@@H](C3CC3)C(F)(F)F)cnn12 [III-121] | 0.7 (≈ 1.71 µM) |
| Cc1cc(-c2ccc(F)c(C#N)c2)nc2c(C(=O)N[C@@H](C)C3CC3)cnn12 [III-157] | 2.9 (≈ 7.98 µM) |
| C#CC(C)(C)NC(=O)c1cnn2c(C)cc(-c3cccc(Cl)c3)nc12 [III-81] | 1.5 (≈ 4.25 µM) |
| Cc1cc(-c2cccc(-c3ncc[nH]3)c2)nc2c(C(=O)NC(C3CC3)C(F)(F)F)cnn12 (centres unmarked) [III-102] | 0.4 (≈ 0.908 µM) |
| Cc1cc(-c2cccc(C#N)c2)nc2c(C(=O)N[C@@H](C)C3CC3)cnn12 [III-70] | 2.1 (≈ 6.08 µM) |

| Structure (SMILES) | solubility [µg/mL] |
| --- | --- |
| Cc1cc(N2CCCN(C(C)C)C2=O)nc2c(C(=O)NC(C)(C)C)cnn12 [III-258] | 26.4 (≈ 70.9 µM) |
| Cc1cc(-n2ccc(Cl)n2)nc2c(C(=O)NC(C)C(F)(F)F)cnn12 (centres unmarked) [III-170] | 0.5 (≈ 1.34 µM) |
| Cc1ccncc1-c1cc(C)n2ncc(C(=O)NC(C)C(F)(F)F)c2n1 (centres unmarked) [III-281] | 12.5 (≈ 34.4 µM) |
| CCc1cc(N2CCOCC2)nc2c(C(=O)NC(C3CC3)C(F)(F)F)cnn12 (centres unmarked) [III-238] | 13.5 (≈ 34 µM) |
| COCc1cc(-c2ccc(F)cc2)nc2c(C(=O)N[C@@H](C)C3CC3)cnn12 [III-46] | 3.4 (≈ 9.23 µM) |
| Cc1cc(-c2ccns2)nc2c(C(=O)N[C@H](C3CC3)C(F)(F)F)cnn12 [III-100] | 0.9 (≈ 2.36 µM) |
| Cc1cc(N2CCCN(C(C)C)C2=O)nc2c(C(=O)NC(C)(C)C3CC3)cnn12 [III-261] | 23 (≈ 57.7 µM) |
| Cc1cc(-c2ccnnc2)nc2c(C(=O)NC(C3CC3)C(F)(F)F)cnn12 (centres unmarked) [III-325] | 14.6 (≈ 38.8 µM) |
| Cc1cc(-c2cccnc2)nc2c(C(=O)NC(C)C(F)(F)F)cnn12 (centres unmarked) [III-43] | 12.1 (≈ 34.6 µM) |
| Cc1cc(-c2cccnc2C(F)(F)F)nc2c(C(=O)N[C@H](C3CC3)C(F)(F)F)cnn12 [III-355] | 0.1 (≈ 0.226 µM) |
| Cc1cc(-c2cccc(C(N)=O)c2)nc2c(C(=O)NC(C3CC3)C(F)(F)F)cnn12 (centres unmarked) [III-73] | 0.4 (≈ 0.958 µM) |
| Cc1cc(N2CCCN(C(C)C)C2=O)nc2c(C(=O)NC(C)(C)C(F)(F)F)cnn12 [III-262] | 19 (≈ 44.6 µM) |
| Cc1cc(N2CCCCC2)nc2c(C(=O)NC(C)C3CC3)cnn12 (centres unmarked) [III-31] | 43.5 (≈ 133 µM) |
| Cc1cc(-c2cccnc2)n2ncc(C(=O)N[C@@H](C)C3CC3)c2n1 [III-27] | 18 (≈ 56 µM) |
| Cc1cc(-c2cccnc2F)nc2c(C(=O)NC(C3CC3)C(F)(F)F)cnn12 (centres unmarked) [III-85] | 1 (≈ 2.54 µM) |
| Cc1cc(N2CCCN(CC(F)(F)F)C2=O)nc2c(C(=O)NC(C3CC3)C(F)(F)F)cnn12 (centres unmarked) [III-260] | 21 (≈ 43.9 µM) |
| Cc1cc(-c2cccc(F)c2)nc2c(C(=O)N[C@H](C)C3CC3)cnn12 [III-92] | 0.2 (≈ 0.591 µM) |
| Cc1cc(-c2cncc(C(F)(F)F)c2)nc2c(C(=O)N[C@@H](C)C(F)(F)F)cnn12 [III-287] | 2.4 (≈ 5.75 µM) |
| Cc1cc(-c2cccnc2F)nc2c(C(=O)N[C@@H](C3CC3)C(F)(F)F)cnn12 [III-115] | 1.9 (≈ 4.83 µM) |
| Cc1cc(-c2ccc(F)c(C(N)=O)c2)nc2c(C(=O)NC(C3CC3)C(F)(F)F)cnn12 (centres unmarked) [III-162] | 1 (≈ 2.3 µM) |
| COc1ccc(F)c(-c2cc(C)n3ncc(C(=O)NC(C)C(F)(F)F)c3n2)c1 (centres unmarked) [III-409] | 0.9 (≈ 2.27 µM) |
| Cc1cc(-c2cccnc2Cl)nc2c(C(=O)NC(C3CC3)C(F)(F)F)cnn12 (centres unmarked) [III-123] | 2.1 (≈ 5.12 µM) |
| Cc1coc(-c2cc(C)n3ncc(C(=O)NC(C4CC4)C(F)(F)F)c3n2)n1 (centres unmarked) [III-254] | 0.6 (≈ 1.58 µM) |
| Cc1cc(-c2cccc3ncoc23)nc2c(C(=O)NC(C3CC3)C(F)(F)F)cnn12 (centres unmarked) [III-104] | 0.02 (≈ 0.0481 µM) |
| C#CC(C)(C)NC(=O)c1cnn2c(C)cc(-c3cccc(OC)c3)nc12 [III-69] | 0.5 (≈ 1.44 µM) |
